{
  "source": "patent US4918061A",
  "about": "“Method of preventing diseases caused by gram-negative endotoxin in mammals” (priority 1988, dated 1990)",
  "key": {"[1]": {"test": "Biological activity after removal of moieties of lipid X"}, "[2]": {"details": "previous work; dependent on being given prior to or very shortly after LPS challenge; cited from earlier work"}, "[3]": {"system": "sheep", "test": "Lethality and clinical toxicity of intravenous lipopolysaccharide in sheep", "details": "usually the result of disseminated intravascular coagulopathy", "procedure": "(§1) Stock solutions of 5 mg/ml were prepared in sterile 0.9% saline.\n(§2) Experimental Animals. Eight week old mice (strain C57BL/10) were purchased from Jackson Laboratories, Bar Harbor, ME. Mixed bred sheep weighing 30-70 kg were obtained from the University of Wisconsin Experimental Farms. Sheep were prepared as follows: at least 24 hours before each experiment catheters were percutaneously placed in the pulmonary artery. Any other catheterizations that were required for infusion were done at this time. All studies were performed on awake, unrestrained sheep placed in portable stanchions with food and water ad libitum. Electronically calculated pulmonary artery pressures as well as heart rates were recorded at various intervals on a Gilson polygraph (Gilson Instruments, Middleton, WI). To ensure a stable baseline prior to the injection of test compounds, approximately 1 hour of baseline measurements were recorded."}, "[4]": {"system": "C57BL/10 mice", "test": "Toxicity of lipid X in mice", "assay_type": "in vivo, mouse", "procedure": "To test for the toxicity of lipid X in mice, C57BL/10 mice were challenged with 750, 2000 or 5000 μg of lipid X intraperitoneally (12 mice) or with 750, 1500 or 3000 μg intravenously (7 mice)."}, "[5]": {"system": "sheep", "test": "Hemodynamic response and toxicity of lipid X in sheep", "assay_type": "in vivo", "details": "40 sheep injected with lipid X", "procedure": "The hemodynamic response of sheep to lipid X has been studied (18). Essentially, the conclusions are that: 1) lipid X (40 μg/kg cumulative dose) causes a transient (3-5 min) increase in pulmonary arterial pressure, that may be attributed to prostaglandin release, or stimulated synthesis. […] The only significant symptoms observed after injection of lipid X alone are transient lethargy and shortness of breath (15-30 min), without significant distress or obvious adverse long-term consequences.\nA period of transient pulmonary hypertension and slight short ness of breath subsides after 30 minutes. About 30 sheep were examined by Burhop with regard to lipid X toxicity."}, "[6]": {"system": "C57BL/10 mice", "test": "Protection of mice by lipid X against lethal endotoxemia", "assay_type": "in vivo, mouse", "procedure": "FIG. 4. […] Controls receiving no lipid X are shown at the left of each panel. The number of mice per group is either three or four, and is the sum of the dead and the living. The number of survivors is shown at the top of the panel. Each point represents the death of one mouse. When all individuals died the mean time of death is shown as a horizontal bar. […] Doses of lipid X were administered in 0.1 ml of physiological saline that had been titrated to pH 8 with Tris to dissolve the lipid.\nas §2\nMice were allowed to rest for at least 7 days following their arrival and were sexually segregated and housed at 5 per cage with food and water ad libitum. […] No more than 0.1 ml of fluid was injected at a time. Just prior to injection, the mice were lightly anesthetized with ether. Following the injection, mice were observed every 0.5-6 hours and the time of death was recorded.\nThe lethal dose of E. coli endotoxin was determined both for the intravenous and of the intraperitoneal challenge.\nMice were given 750 μg of lipid X from 24 hours prior to 6 hours after endotoxin challenge with 1-2 LD100 doses."}, "[7]": {"system": "sheep", "test": "Protection of sheep by lipid X against lethal effects of intravenous lipopolysaccharide", "assay_type": "in vivo", "procedure": "Preparation of E. coli lipid X. The 2,3-diacylglucosamine 1-phosphate (E. coli lipid X) was isolated from E. coli strain MN7 (ATCC #39328) as described previously (9). […] Stock solutions (1-10 mg/ml) are usually prepared in aqueous 1 mM EDTA titrated to pH 8 with Tris-free base. […] In experiments involving the use of mice, solid lipid X was first dissolved in 0.9% saline (instead of water) and titrated with Tris-free base to pH 8 in the same manner.\nas §1, §2"}, "[8]": {"test": "Solution behaviour of lipid X", "assay_type": "physicochemical", "procedure": "(§3) Preparation of E. coli lipid X. The 2,3-diacylglucosamine 1-phosphate (E. coli lipid X) was isolated from E. coli strain MN7 (ATCC #39328) as described previously (9). Lipid X obtained in this manner is a solid white powder. Stock solutions (1-10 mg/ml) are usually prepared in aqueous 1 mM EDTA titrated to pH 8 with Tris-free base. Other monovalent counter ions, such as (NH4)^+, Na^+, K^+, etc., may also be used, but divalent cations such as Mg^++ and Ca^++ cause the lipid to precipitate. […] In experiments involving the use of mice, solid lipid X was first dissolved in 0.9% saline (instead of water) and titrated with Tris-free base to pH 8 in the same manner."}, "[9]": {"test": "Storage stability of lipid X stock solutions", "assay_type": "physicochemical", "details": "stock solutions 5-10 mg/ml stored frozen at -20° C.", "procedure": "as §3"}, "[10]": {"system": "sheep", "details": "cited from earlier work"}, "[11]": {"system": "B cell", "details": "cited from earlier work"}, "[12]": {"system": "macrophages", "details": "cited from earlier work"}, "[13]": {"system": "macrophage protein kinase C", "details": "cited from earlier work"}, "[14]": {"system": "experimental tumors in guinea pigs", "details": "cited from earlier work"}, "[15]": {"details": "sheep, pretreatment with lipid X"}, "[16]": {"details": "lipid X by itself 40-1000 μg/kg"}},
  "data": [
    {"compound": "CCCCCCCCCCCC(O)CC(=O)N[C@H]1C(O)O[C@H](CO)[C@@H](O)[C@@H]1OC(=O)CC(O)CCCCCCCCCCC", "note": "(stereo partly drawn) [dephospho-X]", "values": [
      {"measurement": "biological activity after removal of the phosphate moiety", "setting": "[1]; mild acid treatment of lipid X, may be due to inherent solubility of dephospho-X", "value": "reduces biological activity"}
    ]},
    {"compound": "C=CCN1CC[C@]23c4c5ccc(O)c4O[C@H]2C(=O)CC[C@@]3(O)[C@H]1C5", "note": "[naloxone]", "values": [
      {"measurement": "prevention of the complications of lipopolysaccharide injection", "setting": "[2]", "value": "limited prevention of the complications"}
    ]},
    {"compound": "CCCCCCCCCCCC(O)CC(=O)N[C@H]1[C@@H](OP(=O)(O)O)O[C@H](CO)[C@@H](O)[C@@H]1O", "note": "(stereo partly drawn) [N-monoacyl glucosamine 1-phosphate]", "values": [
      {"measurement": "biological activity after removal of the ester linked β-hydroxymyristoyl moiety", "setting": "[1]; mild alkali treatment of lipid X", "value": "biologically inert"}
    ]},
    {"compound": "lipid A", "values": [
      {"measurement": "time of death after injection (occasional)", "setting": "[3]", "value": "1-2 weeks"}
    ]},
    {"compound": "CCCCCCCCCCCC(O)CC(=O)N[C@H]1[C@@H](OP(=O)(O)O)O[C@H](CO)[C@@H](O)[C@@H]1OC(=O)CC(O)CCCCCCCCCCC", "note": "(stereo partly drawn) [lipid X, 2,3-diacylglucosamine 1-phosphate]", "values": [
      {"measurement": "survival after lipid X challenge", "setting": "[4]; 750, 2000 or 5000 μg intraperitoneally (12 mice) or 750, 1500 or 3000 μg intravenously (7 mice)", "value": "All these mice lived"},
      {"measurement": "toxicity of lipid X", "setting": "[4]; mice", "value": "nontoxic in mice"},
      {"measurement": "adverse complications of lipid X administration", "setting": "[5]", "value": "no serious adverse complications"},
      {"measurement": "last death after challenge", "setting": "[6]; 750 μg lipid X intravenously, 250 or 500 μg endotoxin intravenously", "value": "≤ 5", "unit": "days"},
      {"measurement": "mortality of group receiving lipid X shortly after endotoxin challenge", "setting": "[6]; both challenge doses, versus the group on either side", "value": "higher mortality than the group on either side"},
      {"measurement": "onset and duration of protection against lipopolysaccharide", "setting": "[6]; compared with classical tolerance, which does not appear for many days", "value": "immediate and wears off after several hours"},
      {"measurement": "survival of mice", "setting": "[6]; lipid X (750 μg intravenously) from 1 hour prior to through 4 hours post LPS challenge, 250 μg endotoxin", "value": 81, "unit": "%"},
      {"measurement": "survival of mice", "setting": "[6]; lipid X from 6 hours prior to endotoxin challenge through 1 hour after LPS challenge, intravenous, printed 500 μg lipid X", "value": "Forty-one"},
      {"measurement": "prolongation of time to death", "setting": "[6]; lipid X intraperitoneally 2 hours before 1500 μg endotoxin (3 times LD100) intraperitoneally, data not shown", "value": "four"},
      {"measurement": "time to death", "setting": "[6]; lipid X intraperitoneally 2 hours before 1500 μg endotoxin, about 20 hours without lipid X, data not shown", "value": "~80", "unit": "h"},
      {"measurement": "resistance to the lethal effects of gram-negative endotoxin", "setting": "[6]; mice, pretreatment with lipid X", "value": "immediately resistant to the lethal effects"},
      {"measurement": "prevention of lethal endotoxicity when given after lipopolysaccharide", "setting": "[6]; mouse, lipid X given 4 hours after lipopolysaccharide", "value": "appears to prevent lethal endotoxicity even when given 4 hours after lipopolysaccharide"},
      {"measurement": "Survivors", "setting": "[7]; lipid X 50 μg/kg 1 hour prior to endotoxin, lipopolysaccharide 20 μg/kg", "value": "1/2"},
      {"measurement": "Survivors", "setting": "[7]; lipid X 100 μg/kg 15 min. prior to endotoxin, lipopolysaccharide 10 μg/kg", "value": "3/3"},
      {"measurement": "Survivors", "setting": "[7]; lipid X 100 μg/kg 1 hour prior to endotoxin, lipopolysaccharide 20 μg/kg", "value": "4/4"},
      {"measurement": "Survivors", "setting": "[7]; lipid X 200 μg/kg 1 hour prior to endotoxin, lipopolysaccharide 20 μg/kg", "value": "3/3"},
      {"measurement": "survival of subsequent LPS challenge", "setting": "[7]; sheep receiving 100-200 μg/kg lipid X during the pretreatment period", "value": "all the sheep receiving 100-200 μg/kg of lipid X during the pretreatment period survived"},
      {"measurement": "excess of lipid X over LPS required to ensure survival", "setting": "[7]; sheep, on a weight basis", "value": "5-10 fold"},
      {"measurement": "effect on pulmonary hypertension or fever induced by LPS", "setting": "[7]; [15]", "value": "does not prevent pulmonary hypertension or fever"},
      {"measurement": "effect on serious clinical symptoms (shortness of breath, weakness, diarrhea, etc.)", "setting": "[7]; [15]", "value": "alleviates some of the serious clinical symptoms"},
      {"measurement": "resistance to the lethal effects of gram-negative endotoxin", "setting": "[7]; [15]", "value": "immediately resistant to the lethal effects"},
      {"measurement": "behaviour with divalent cations", "setting": "[8]; Mg^++ and Ca^++", "value": "precipitate"},
      {"measurement": "solution behaviour in Tris-EDTA", "setting": "[8]; pH 8, stock solutions 1-10 mg/ml", "value": "forms a clear viscous solution"},
      {"measurement": "solubility in water", "setting": "[8]; water", "value": "limited solubility"},
      {"measurement": "storage stability", "setting": "[9]", "value": "many months without evidence of significant deterioration"},
      {"measurement": "duration of transient increase in pulmonary arterial pressure", "setting": "[10]; lipid X 40 μg/kg cumulative dose", "value": "3 to 5", "unit": "min"},
      {"measurement": "duration of pulmonary hypertension", "setting": "[10]; lipid X 500-1000 μg/kg intravenously", "value": "5 to 10", "unit": "min"},
      {"measurement": "duration of transient lethargy and shortness of breath", "setting": "[10]; lipid X alone", "value": "15 to 30", "unit": "min"},
      {"measurement": "marked illness or fever", "setting": "[10]; [16]", "value": "does not create marked illness or fever"},
      {"measurement": "time for transient pulmonary hypertension and slight shortness of breath to subside", "setting": "[10]; [16]", "value": 30, "unit": "min"},
      {"measurement": "increased permeability of the pulmonary circulation", "setting": "[10]; lipid X, compared to endotoxin", "value": "to a very mild degree compared to endotoxin"},
      {"measurement": "delay between injection and increase of pulmonary arterial pressure", "setting": "[10]; lipid X", "value": "no delay"},
      {"measurement": "life-threatening pulmonary edema", "setting": "[10]; lipid X", "value": "does not develop"},
      {"measurement": "terminal endotoxemia", "setting": "[10]; very high doses of lipid X", "value": "fails to cause terminal endotoxemia"},
      {"measurement": "B cell mitogen", "setting": "[11]", "value": "B cell mitogen"},
      {"measurement": "macrophage activation with release of prostaglandin E2", "setting": "[12]", "value": "capable of activating macrophages with release of protaglandin E2"},
      {"measurement": "activation of macrophage protein kinase C", "setting": "[13]", "value": "can activate macrophage protein kinase C"},
      {"measurement": "regression of experimental tumors", "setting": "[14]", "value": "capable of inducing regression of experimental tumors in guinea pigs"}
    ]}
  ]
}
